The source of these data is patent publication US20220202964A1, “HEPARANASE COMPOUNDS AND METHODS OF USE” (University of Florida Research Foundation, Incorporated, priority 2019, published 2022).

Where two headings read alike, the source gives them in different places.

The conditions of series [1]: stated for comparison; cited from earlier work.
The nature of series [2]: pH profile of fluorescence / pKa. The class given is physicochemical. The conditions noted are these: hydrolytic product of HADP, fluorescence vs pH. The procedure:
So, pH profiles of the fluorophore DiFMU and Compound 1 (HADP) were evaluated. […] In contrast, the pKa of 4-methylumbelliferone is ca. 7.8. […] Moreover, the introduction of the fluorine substituents increased the quantum yield and improved the photostability, enabling highly sensitive detection for heparanase.

Series [3] has as its target T1, heparanase (Homo sapiens, UniProt Q9Y251).
T1 sequence (Q9Y251 36-543): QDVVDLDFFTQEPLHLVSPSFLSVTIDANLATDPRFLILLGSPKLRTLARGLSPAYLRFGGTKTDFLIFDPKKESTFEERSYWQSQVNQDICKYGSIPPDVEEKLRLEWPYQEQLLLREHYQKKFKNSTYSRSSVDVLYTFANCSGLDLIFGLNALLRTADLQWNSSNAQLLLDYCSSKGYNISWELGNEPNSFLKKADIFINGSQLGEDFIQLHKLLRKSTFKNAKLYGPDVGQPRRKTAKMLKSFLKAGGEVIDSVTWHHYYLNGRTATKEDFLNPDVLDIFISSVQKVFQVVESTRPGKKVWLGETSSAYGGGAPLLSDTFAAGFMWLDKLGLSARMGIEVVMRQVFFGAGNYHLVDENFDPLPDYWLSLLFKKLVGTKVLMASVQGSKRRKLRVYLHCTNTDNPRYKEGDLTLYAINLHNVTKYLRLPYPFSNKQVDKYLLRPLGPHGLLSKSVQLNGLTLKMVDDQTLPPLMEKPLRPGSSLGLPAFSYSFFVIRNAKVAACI
The conditions noted are these: substrate for heparanase, comparison value; cited from earlier work.

Series [4] concerns the target T1, heparanase. As to the kind of experiment: HPLC analysis of compounds 1-4 with heparanase. The class given is biochemical. The conditions noted are these: 5 μM, heparanase 1 μg, 4 hours, 37° C., NaOAc pH 5.0. The procedure: Heparanase (1 μg, 20 μL) was added to the compounds 1-4 solution (180 μL, 5 μM) in 40 mM NaOAc buffer (pH 5.0) and the mixture was incubated for 4 hours at 37° C. The resulting mixtures were injected into HPLC for analysis. HPLC analysis was performed under the following conditions—mobile phase A: water with 0.1% TFA; B: acetonitrile with 0.1% TFA; 0-20 min: gradient elution, 25-95% B. The trace was monitored by DAD detector at 315 nm.

The target of series [5] is T1, heparanase. As to the kind of experiment: Activation of compounds by recombinant heparanase (fluorescence response). It counts as biochemical. The conditions noted are these: 5 μM compound, 1 μg heparanase, 40 mM NaOAc buffer (pH 5.0), 37° C., λex/em=365 nm/455 nm. The procedure:
To a solution of 20 μL, of 50 μM compound 1 (HADP) and 160 μL 40 mM NaOAc (pH=5.0) was added 20 μL, 0.1 μg/μL heparanase to obtain 5 μM 1 (HADP) with 2 μg heparanase solution. After incubation at 37° C. for 2 h, the reaction solution was transferred to quartz cuvettes to measure absorbance or fluorescence. Absorbance spectrum scan range from 250 nm to 500 nm (1 nm increment). fluorescence spectrum setting: λex=365 nm, Slit Width 2.5 nm. Emission was record from 400 nm to 600 nm, Slit Width 5 nm. Absorption spectra were recorded on Shimadzu UV-2700 UV-VIS Spectrophotometer. Fluorescence spectra were recorded on Fluorolog TAU-3 Spectrofluorometer with a xenon lamp (Jobin Yvon-Spex, Instruments S. A., Inc.)
Fluorescence micro cells was charged with 20 μL, of 50 μM compound 1 (HADP) and 160 μL 40 mM NaOAc (pH=5.0). Then 20 μL, 0.05 μg/μL heparanase was added to the above solution. Fluorescence spectra were recorded from 0 min to 3 h. fluorescence spectrum setting: λex=365 nm, Slit Width 2.5 nm. Emission was record from 400 nm to 600 nm, Slit Width 5 nm.
To a solution of 20 μL, of 50 μM each compound and 160 μL, 40 mM NaOAc (pH=5.0) was added 20 μL, 0.05 μg/μL heparanase to obtain 5 μM each compound with 1 μg heparanase solution in 96-well microplate. Each compound was performed in triplicate. Then the microplate was sealed with sealing film and incubated at 37° C. Fluorescence intensity was recorded on Spectramax M5 Multimode plate reader (Molecular Devices, USA) at each timepoint. λex/em=365 nm/455 nm.
5 μM compound 1 (HADP) was incubated with various biological species at the indicated amount/concentration in 96-well microplate. Cysteine (5 mM), Glutathione (5 mM), H2O2 (100 μM), Esterase, Chondroitinase ABC, Hyaluronidase, Lysozyme, β-Glucuronidase, β-Glucosidase (5 μg each) and heparanase (2 μg). For Chondroitinase ABC and Hyaluronidase, 50 μg was also tested. Each sample was performed in triplicates. Then the microplate was sealed with sealing film and incubated at 37° C. for 4 hours. Fluorescence intensity was recorded on Spectramax M5 Multimode plate reader (Molecular Devices, USA). λex/em=365 nm/455 nm.

Regarding `Cc1cc(=O)oc2cc(O)ccc12` [4-methylumbelliferone], in series [1], the pKa (as a rule, the pH at which an ionisable group is half protonated) is “ca. 7.8”.

The molecule `Cc1cc(=O)oc2c(F)c(O)c(F)cc12` [DiFMU, 6,8-difluoro-7-hydroxy-4-methylcoumarin, reference compound] had a pKa in series [2] of roughly 4.7.

With `CO[C@H]1O[C@H](COS(=O)(=O)O)[C@@H](O[C@@H]2O[C@@H](C(=O)O)[C@@H](O[C@H]3O[C@H](COS(=O)(=O)O)[C@@H](O[C@@H]4O[C@H](C(=O)O)[C@@H](O[C@H]5O[C@H](COS(=O)(=O)O)[C@@H](O)[C@H](O)[C@H]5NS(=O)(=O)O)[C@H](O)[C@H]4O)[C@H](OS(=O)(=O)O)[C@H]3NS(=O)(=O)O)[C@H](O)[C@H]2OS(=O)(=O)O)[C@H](O)[C@H]1NS(=O)(=O)O` [fondaparinux], the Km (as a rule, the concentration of substrate that gives half-maximal velocity) on heparanase [3] is 46 µM.

Consider “(2S,3S,4R,5R,6S)-3-(((2R,3R,4R,5S,6R)-4,5-dihydroxy-6-((sulfooxy)methyl)-3-(((E)-trioxidaneyl-14-sulfaneylidene)amino)tetrahydro-2H-pyran-2-yfloxy)-4,5-dihydroxy-6-((4-methyl-2-oxo-2H-chromen-7-yl)oxy)tetrahydro-2H-pyran-2-carboxylic acid [Compound 4]”, for which the “cleavage by heparanase (HPLC trace)” value on heparanase [4] was “could not be cleaved by heparanase”. The “fluorescence response towards heparanase” value at heparanase [5] is “could not be activated by heparanase”.

For “(2S,3S,4R,5R,6S)-6-((8-(difluoromethyl)-4-methyl-2-oxo-2H-chromen-7-yl)oxy)-3-(((2R,3R,4R,5S,6R)-3-((hydrosulfonyloxy)amino)-4,5-dihydroxy-6-(hydroxymethyl)tetrahydro-2H-pyran-2-yl)oxy)-4,5-dihydroxytetrahydro-2H-pyran-2-carboxylic acid [Compound 3]”, the “cleavage by heparanase (HPLC trace)” value on heparanase [4] is listed as “could not be cleaved by heparanase”. For the same molecule, the “fluorescence response towards heparanase” value at heparanase [5] is “very slight fluorescence enhancement”.
